Measurements as given in patent publication US20260219277A1, “NOVEL FLUORESCENT COMPOUND, AND COMPOSITION FOR DETECTING GINGIPAIN, COMPOSITION FOR DIAGNOSING PORPHYROMONAS GINGIVALIS INFECTION, OR ANTIBACTERIAL COMPOSITION AGAINST PORPHYROMONAS GINGIVALIS USING SAME” (priority 2023, published 2026).

Legend:
[1] = tested on: P. gingivalis conditioned medium (P.g. C.M.); parameters: species or system Porphyromonas gingivalis; settings: for increase in fluorescence in the P. gingivalis conditioned medium (P.g. C.M.): compared to the basic TSB media
Text: (§1) Specifically, P. gingivalis is known to secrete gingipain (Kgp, Rgp) and outer membrane vesicles (OMVs) (FIG. 1A). Causative bacteria of periodontitis, i.e., P. gingivalis, F. nucleatum, and A. actinomycetecomitans, were observed using a scanning electron microscope (SEM) (FIG. 1B). Afterward, the conditioned media (C.M.) were isolated (FIG. 1C).
(§2) Therefore, the present inventors screened 24 types of thiol-reactive fluorescent compound libraries using the conditioned media. Here, four types of thiol-reactive MitoTrackers were used as control materials.
(§3) After culturing living P. gingivalis, F. nucleatum, and A. actinomycetecomitans with the fluorescent compound DTC630, and MitoTracker™ Red, cell-specific fluorescence reactions were compared.

Rgp = Rgp (Porphyromonas gingivalis, UniProt P28784); assay: Fluorescence spectrum after culture with Rgp; format: binding, P. gingivalis; settings: 10 μM, λex=425 nm; for detection of Rgp (fluorescence compared to PBS), in words: λem=450-700 nm
Rgp, sequence (P28784 228-991): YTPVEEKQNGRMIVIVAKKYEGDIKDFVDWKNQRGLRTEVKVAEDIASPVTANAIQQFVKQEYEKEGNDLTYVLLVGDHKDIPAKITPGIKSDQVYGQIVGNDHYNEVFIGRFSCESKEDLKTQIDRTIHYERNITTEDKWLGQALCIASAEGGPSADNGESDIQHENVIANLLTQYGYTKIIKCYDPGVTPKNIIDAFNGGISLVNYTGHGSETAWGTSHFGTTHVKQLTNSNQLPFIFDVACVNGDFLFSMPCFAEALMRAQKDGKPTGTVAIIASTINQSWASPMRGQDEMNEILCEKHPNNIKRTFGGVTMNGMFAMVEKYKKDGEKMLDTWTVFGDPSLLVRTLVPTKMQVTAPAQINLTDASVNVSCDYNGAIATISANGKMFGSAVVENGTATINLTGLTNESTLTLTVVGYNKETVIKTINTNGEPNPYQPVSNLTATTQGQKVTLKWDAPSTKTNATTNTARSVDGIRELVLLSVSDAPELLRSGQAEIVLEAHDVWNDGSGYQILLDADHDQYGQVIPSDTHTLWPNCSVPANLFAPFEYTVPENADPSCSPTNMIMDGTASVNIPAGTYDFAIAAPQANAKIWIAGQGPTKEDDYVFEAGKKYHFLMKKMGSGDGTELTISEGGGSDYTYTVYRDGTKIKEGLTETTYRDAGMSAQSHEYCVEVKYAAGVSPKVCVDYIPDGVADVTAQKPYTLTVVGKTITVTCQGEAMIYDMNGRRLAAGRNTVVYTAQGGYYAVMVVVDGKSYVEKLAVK
Procedure: (§4) Specifically, after the gingipains (Kgp and Rgp) secreted from P. gingivalis, calpain, which is a cysteine protease, and trypsin, which is a serine protease, were cultured with fluorescent compound DTC630 (10 μM), a fluorescence spectrum was measured (λex=425 nm, λem=450-700 nm).
(§5) In addition, the degree of fluorescence reaction of fluorescent compound DTC630 (1, 3, 10, 30, and 100 μM) was measured at each concentration for Kgp, Rgp, calpain, and trypsin (final concentration: 0.3 mg/mL).

calpain = assay: Fluorescence spectrum after culture with calpain; format: binding, human; settings: 10 μM, λex=425 nm; for detection of calpain (fluorescence compared to PBS), in words: λem=450-700 nm
Procedure: as §4, §5

trypsin = assay: Fluorescence spectrum after culture with trypsin; format: binding, human; settings: 10 μM, λex=425 nm; for detection of trypsin (fluorescence compared to PBS), in words: λem=450-700 nm
Procedure: as §4, §5

Kgp = assay: Fluorescence spectrum after culture with Kgp; format: binding, P. gingivalis; settings: 10 μM, λex=425 nm; for detection of Kgp (fluorescence compared to PBS), in words: λem=450-700 nm
Procedure: as §4, §5

[2] = tested on: A. actinomycetecomitans conditioned medium (A.a C.M.); assay: Fluorescence reaction in A. actinomycetecomitans conditioned medium; settings: compared to the basic TSB media
Text: as §1, §2, §3

[3] = tested on: F. nucleatum conditioned medium (F.n. C.M.); assay: Fluorescence reaction in F. nucleatum conditioned medium; settings: compared to the basic TSB media
Text: as §1, §2, §3

Compound	selectivity of fluorescence reaction for P. gingivalis conditioned medium (library screen heatmap) ([1]; fluorescence magnification for TSB medium, screen of 24 thiol-reactive fluorescent compounds)	detection of Rgp (fluorescence compared to PBS), in words (Rgp)	detection of calpain (fluorescence compared to PBS), in words (calpain)	detection of trypsin (fluorescence compared to PBS), in words (trypsin)	fluorescence increase for Kgp compared to PBS (Kgp) [fold]	detection of Kgp (fluorescence compared to PBS), in words (Kgp)	increase in fluorescence in the P. gingivalis conditioned medium (P.g. C.M.) [1] [fold]	increase in fluorescence in the A. actinomycetecomitans conditioned medium (A.a C.M.) [2] [fold]	increase in fluorescence in the F. nucleatum conditioned medium (F.n. C.M.) [3] [fold]	fluorescence increase for Rgp compared to PBS (Rgp) [fold]	fluorescence increase for calpain compared to PBS (calpain) [fold]	fluorescence increase for trypsin compared to PBS (trypsin) [fold]
CN(C)c1ccc(-c2ccc(C=C(C#N)C#N)cc2)cc1 [DTC2352, 2-((4′-(dimethylamino)-[1,1′-biphenyl]-4-yl)methylene)malononitrile]	does not exhibit a P. gingivalis-selective fluorescence reaction	no increase in fluorescence	no increase in fluorescence	no increase in fluorescence	3±0	no increase in fluorescence	–	–	–	–	–	–
CN(C)c1ccc(-c2ccc(/C=C(\C#N)c3nnn[nH]3)cc2)cc1 [DTC630, (E)-3-(4′-(dimethylamino)-[1,1′-biphenyl]-4-yl)-2-(1H-tetrazol-5-yl) acrylonitrile]	–	–	–	–	–	–	6.2±0.2	1.5±0.1	1.6±0.1	–	–	–
ClCc1ccc(C2=c3cc4c5c(c3Oc3c2cc2c6c3CCCN6CCC2)CCC[N+]=5CCC4)cc1.[Cl-] [MitoTracker™ Red]	–	increase in fluorescence	increase in fluorescence	increase in fluorescence	145±5	increase in fluorescence	5.6±0.6	4.5±0.1	3.2±0.1	126±6	163±1	93±9
